Assay results as given in patent publication US20260193295A1, “CILAGICIN COMPOUNDS AND METHODS OF USE THEREOF” (priority 2022, published 2026).
≈ marks a conversion by molar mass, not a printed value. Where two headings read alike, the source gives them in different places. Positions of bridges follow the written chain, without caps; N, C: chain ends. Non-standard residues stand in square brackets, D forms with d. Residues, ends and D or L forms follow the SMILES beside them. *: point of attachment. Myristoyl = CCCCCCCCCCCCCC(=O)*; dDab = NCC[C@@H](N)C(=O)O; Dab = NCC[C@H](N)C(=O)O

Experiments:
[1] = Isothermal titration calorimetry (ITC); assay type: binding; conditions: 25° C., DOPC vesicles
Description: Isothermal titration calorimetry (ITC) The interaction of cilagicin and undecaprenyl phosphate (C55-P, Larodan, SE) or undecaprenyl diphosphate (C55-PP, Larodan, SE) was measured using ITC. Briefly, 0.1 μm of large unilamellar vesicles (LUVs) was prepared by mixing 1,2-dioleoyl-sn-glycero-3-phosphocholine (DOPC, Avanti, AL) and 0.1% of either C55-P or C55-PP in chloroform/methanol (2:1). The resulting lipid suspension was dried under argon gas for 2 hours and then rehydrated in 10 mM HEPES buffer (pH 7.5, 100 mM NaCl). The dried sample was filtered 10 times through an Avanti mini extruder (Avanti, AL) using a 0.1 μM filter membrane. ITC binding experiments were performed using a MicroCal Auto-iTC200. A vesicle suspension of 0.27 μM C55-P or 0.25 μM C55-PP and 2.5 mM DOPC in HEPES buffer was titrated into a freshly made solution of 0.1 mM cilagicin in the same buffer. The titration was conducted under the following conditions: temperature 25° C., reference power 5 uCals-1, syringe-stirring speed 750 rpm, number of injections 19, injection volume 2 μl, and time between injections 150 s. The calorimetric data obtained from the Auto-iTC200 instrument was analyzed using AFFINImeter software. Thermodynamic parameters (enthalpy (AH), entropy (AS), and the equilibrium binding constant (KD)) were calculated using a one-binding site model.

[2] = mice, intraperitoneal (IP) injection
Staphylococcus aureus = assay type: cell-based; conditions: S. aureus, presence versus absence of serum (10% serum)
[3] = tested on: Enterococcus casseliflavus; assay type: cell-based
Pseudomonas aeruginosa = assay type: cell-based
Gram-positive pathogens = assay type: cell-based
Enterococcus faecalis = assay type: cell-based
Streptococcus agalactiae = assay type: cell-based
Enterococcus gallinarum = assay type: cell-based
Klebsiella pneumoniae = assay type: cell-based
Streptococcus pneumoniae = assay type: cell-based
Enterobacter cloacae = assay type: cell-based
Acinetobacter baumannii = assay type: cell-based
Bacillus subtilis = assay type: cell-based
Enterococcus faecium = assay type: cell-based
Streptococcus pyrogens = assay type: cell-based
[4] = Animal infection model (cilagicin, not further described); assay type: in vivo
S. aureus USA300 = assay: Membrane depolarization assay (DiSC3(5)); assay type: cell-based, Staphylococcus aureus; conditions: S. aureus exposed to 8-fold MIC
Description: The effect of cilagicin on membrane depolarization was analyzed using DiSC3(5) dye (Thermo Fisher, USA). Overnight cultures of S. aureus USA300 were harvested and resuspended in PBS (OD600 nm=0.37). Cell suspension (1 mL) and 10 μL of 4 μM DisC3(5) were pre-mixed and incubated in the dark at room temperature for 15 minutes. 50 μL of this mixture was then added to each well of black 96-well flat bottom black microtiter plates. The initial fluorescence intensity of each well was recorded using an infinite 200 PRO (Excitation/Emission=620/670 nm) at 9 second intervals for 15 minutes. 50 μL of a 1 μM solution of each test compound was then added to each well. Gramicidin (30 μM) and melittin (1 μM) were used as positive controls. DMSO was used as the vehicle control. The fluorescence intensity of each well was then monitored at 9 second intervals for another 15 minutes and plotted by Prism 9.0. All assays were performed in biological triplicate (n=3).

In the case of CCCCCCCCCCCCCC(=O)N[C@H](CO)C(=O)N[C@@H]1C(=O)N[C@H](CCN)C(=O)N[C@@H](CC(=O)O)C(=O)NCC(=O)N[C@H](CC(N)=O)C(=O)N[C@H](CC(=O)O)C(=O)NCC(=O)N[C@@H](Cc2ccc(O)cc2)C(=O)N[C@@H](C(C)C)C(=O)N[C@@H](CCN)C(=O)N[C@@H](Cc2ccccc2)C(=O)O[C@@H]1C [Cilagicin] (Myristoyl-[dS]T[dDab]DG[dN][dD]GYV[Dab]F; ester 2-C), the Kd ([1]; read-out: dissociation constant (Kd), C55P) is reported as 22 nM, the Kd ([1]; read-out: dissociation constant (Kd), C55PP) is reported as 56 nM and the plasma bioavailability [2] is reported as “high plasma bioavailability”. The “antibacterial activity (MIC) in the presence of serum” value (Staphylococcus aureus) was “significantly suppressed”, the “Cilagicin MIC” value [3] was 0.125 µg/mL and the “Cilagicin MIC” value (Pseudomonas aeruginosa) was >64 µg/mL. For the same compound, the MIC (Gram-positive pathogens) was 1 µg/mL (≈ 0.682 µM), the MICs (Gram-positive pathogens) was ≤ 0.25 µg/mL and the “minimum inhibitory concentrations (MIC)” value (Gram-positive pathogens) was 0.125 to 2 µg/mL. For the same compound, the “Cilagicin MIC” value (Enterococcus faecalis) was 0.5 µg/mL, the “Cilagicin MIC” value (Streptococcus agalactiae) was 1 µg/mL and the MIC (Streptococcus agalactiae) was 1 µg/mL (≈ 0.682 µM). For the same compound, the “Cilagicin MIC” value (Enterococcus gallinarum) was 0.5 µg/mL, the “Cilagicin MIC” value (Klebsiella pneumoniae) was >64 µg/mL and the MIC (Streptococcus pneumoniae) was 0.25 µg/mL (≈ 0.17 µM). For the same compound, the “Cilagicin MIC” value (Enterobacter cloacae) was >64 µg/mL, the “Cilagicin MIC” value (Acinetobacter baumannii) was 8 µg/mL and the MIC (Acinetobacter baumannii; A. baumannii (Table 5)) was 8 µg/mL (≈ 5.45 µM). For the same compound, the “Cilagicin MIC” value (Bacillus subtilis) was 2 µg/mL, the “Cilagicin MIC” value (Enterococcus faecium) was 0.5 µg/mL and the MIC (Enterococcus faecium) was 0.5 µg/mL (≈ 0.341 µM). For the same compound, the “Cilagicin MIC” value (Streptococcus pyrogens) was 0.125 µg/mL, the MIC (Streptococcus pyrogens) was 0.125 µg/mL (≈ 0.0852 µM) and the bacterial burden [4] was “did not reduce bacterial burden”. The “membrane depolarization (DiSC3(5) fluorescence)” value (S. aureus USA300) was “No response was detected”.
